Assay results as given in patent publication US12371430B2, “5-morpholin-4-yl-pyrazolo[4,3-b]pyridine derivatives” (Merck Patent GmbH, priority 2018, dated 2025).

Columns and labels:
ATR/ATRIP = ATR/ATRIP (Homo sapiens (Human), UniProt Q13535); experiment: ATR/ATRIP kinase assay (TR-FRET, p53 Ser15 phosphorylation); assay type: biochemical; details: 0.5 μM ATP, 50 nM p53
Experimental: ATR/ATRIP Kinase Assay—Measurement of ATR/ATRIP Inhibition
The IC50 value was determined by an ATR/ATRIP enzymatic assay. The assay comprises two steps: the enzymatic reaction and the detection step. First, a mixture of ATR/ATRIP protein (Ataxia Telangiectasia and Rad3-related protein/ATR interacting protein), the compound in question at different concentrations, p53 as substrate protein and adenosine triphosphate (ATP) are incubated in assay buffer. ATR phosporylates p53 at Ser15 and other residues. The amount of phosphorylated p53 is then detected using specific antibodies and the TR-FRET assay technology.
In detail: The ATR/ATRIP enzymatic assay is performed as a TR-FRET-(HTRF™, Cisbio Bioassays) based 384-well assay. In a first step, purified human recombinant ATR/ATRIP (human ATR, full length, GenBank ID: NM_001184.3, and human ATRIP, full length, GenBank ID AF451323.1, co-expressed in a mammalian cell line) is incubated in assay buffer for 15 minutes at 22° C. with test compound at different concentrations or without test compound (as a negative control). The assay buffer contains 25 mM HEPES pH 8.0, 10 mM Mg(CH3COO)2, 1 mM MnCl2, 0.1% BSA, 0.01% Brij® 35, and 5 mM dithiothreitol (DTT). An Echo 555 (Labcyte) is used for dispensing of compound solutions. Then, in a second step, purified human recombinant cmyc-tagged p53 (human p53, full length, GenBank ID: BC003596, expressed in Sf21 insect cells) and ATP are added and the reaction mixture is incubated for 25-35 minutes, typically 25 minutes, at 22° C. The pharmacologically relevant assay volume is 5 μl. The final concentrations in the assay during incubation of the reaction mixture are 0.3-0.5 nM, typically 0.3 nM, ATR/ATRIP, 50 nM p53, and 0.5 μM ATP. The enzymatic reaction is stopped by the addition of EDTA. The generation of phosphorylated p53 as a result of the ATR mediated reaction in the presence of ATP is detected by using specific antibodies [labeled with the fluorophores europium (Eu) as donor and d2 as acceptor (Cisbio Bioassays)] enabling FRET. For this purpose, 2 μl of antibody-containing stop solution (12.5 mM HEPES pH 8.0, 125 mM EDTA, 30 mM sodium chloride, 300 mM potassium fluoride, 0.006% Tween-20, 0.005% Brij® 35, 0.21 nM anti-phospho-p53(Ser15)-Eu antibody, 15 nM anti-cmyc-d2 antibody) are added to the reaction mixture. Following signal development for 2 h the plates are analyzed in an EnVision (PerkinElmer) microplate reader using the TRF mode with laser excitation. Upon excitation of the donor europium at 340 nm the emitted fluorescence light of the acceptor d2 at 665 nm as well as from the donor Eu at 615 nm are measured. The amount of phosphorylated p53 is directly proportional to the ratio of the amounts of emitted light i.e. the ratio of the relative fluorescence units (rfu) at 665 nm and 615 nm. Data are processed employing the Genedata Screener software. In particular, IC50 values are determined in the usual manner by fitting a dose-response curve to the data points using nonlinear regression analysis. • IC50=half maximal inhibitory concentration • ATP=Adenosine triphosphate • TR-FRET=Time-Resolved Fluorescence Resonance Energy Transfer • HTRF®=Homogeneous Time Resolved Fluorescence • HEPES=2-(4-(2-Hydroxyethyl)-1-piperazinyl)-ethanesulfonic acid • Mg(CH3COO)2=Magnesium acetate • MnCl2=Manganese(II)-chloride • BSA=Bovine Serum Albumin • EDTA=Ethylendiamine Tetraacetate • TRF=Time Resolved Fluorescence pCHK1 Cellular Assay

[1] = system: phosphorylation of Chk1 (Ser 345) in HT29 colon adenocarcinoma cells; experiment: pCHK1 cellular assay; assay type: cell-based; details: Homo sapiens, HT-29, hydroxyurea 3 mM, 4 h
From the text: Chk1 kinase acts downstream of ATR and has a key role in DNA damage checkpoint control. Activation of Chk1 involves phosphorylation of Ser317 and Ser345 (regarded as the preferential target for phosphorylation/activation by ATR) and occurs in response to blocked DNA replication and certain forms of genotoxic stress. Phosphorylation at Ser 345 serves to localize Chk1 to the nucleus following checkpoint activation.
This assay measures a decrease in phosphorylation of Chk1 (Ser 345) in HT29 colon adenocarcinoma cells following treatment with compound and hydroxyurea (which promotes fork stalling because of dNTP depletion) and using an immunocytochemical procedure and high content imaging.
For the assay HT29 cells are plated in culture medium (DMEM high Glucose (no phenol red), 2 mM Glutamax, 1 mM Pyruvate, 10% FCS into Greiner 384 well plates, black, μclear #781090 (2500 cells/well/30 μl) and incubated for at least 20 hours at 37° C., 10% CO2 and 90% rH. Diluted test compounds (1 nM-30 μM final) and hydroxyurea (3 mM final) are added simultaneously and cells are incubated for 4 h at 37° C. After fixation/prmeabilisation with 100% MeOH (−20° C. cold) and permeabilisation with 0.2% Triton X-100 a complete immunocytochemical procedure is performed using a specific anti-pChk1 antibody (Cell Signaling, #2348BF) and fluorescently labelled secondary antibody (Alexa Fluor® 488 goat anti-rabbit F(ab′)2 fragment, Invitrogen A11070) and parallel nuclear staining for cell counting.
The nuclear localised pChk1 signal is detected on an ImageXpress Ultra confocal high content reader and reported as % positive cells (nuclei).

ATR/ATRIP, sequence (Q13535 whole entry): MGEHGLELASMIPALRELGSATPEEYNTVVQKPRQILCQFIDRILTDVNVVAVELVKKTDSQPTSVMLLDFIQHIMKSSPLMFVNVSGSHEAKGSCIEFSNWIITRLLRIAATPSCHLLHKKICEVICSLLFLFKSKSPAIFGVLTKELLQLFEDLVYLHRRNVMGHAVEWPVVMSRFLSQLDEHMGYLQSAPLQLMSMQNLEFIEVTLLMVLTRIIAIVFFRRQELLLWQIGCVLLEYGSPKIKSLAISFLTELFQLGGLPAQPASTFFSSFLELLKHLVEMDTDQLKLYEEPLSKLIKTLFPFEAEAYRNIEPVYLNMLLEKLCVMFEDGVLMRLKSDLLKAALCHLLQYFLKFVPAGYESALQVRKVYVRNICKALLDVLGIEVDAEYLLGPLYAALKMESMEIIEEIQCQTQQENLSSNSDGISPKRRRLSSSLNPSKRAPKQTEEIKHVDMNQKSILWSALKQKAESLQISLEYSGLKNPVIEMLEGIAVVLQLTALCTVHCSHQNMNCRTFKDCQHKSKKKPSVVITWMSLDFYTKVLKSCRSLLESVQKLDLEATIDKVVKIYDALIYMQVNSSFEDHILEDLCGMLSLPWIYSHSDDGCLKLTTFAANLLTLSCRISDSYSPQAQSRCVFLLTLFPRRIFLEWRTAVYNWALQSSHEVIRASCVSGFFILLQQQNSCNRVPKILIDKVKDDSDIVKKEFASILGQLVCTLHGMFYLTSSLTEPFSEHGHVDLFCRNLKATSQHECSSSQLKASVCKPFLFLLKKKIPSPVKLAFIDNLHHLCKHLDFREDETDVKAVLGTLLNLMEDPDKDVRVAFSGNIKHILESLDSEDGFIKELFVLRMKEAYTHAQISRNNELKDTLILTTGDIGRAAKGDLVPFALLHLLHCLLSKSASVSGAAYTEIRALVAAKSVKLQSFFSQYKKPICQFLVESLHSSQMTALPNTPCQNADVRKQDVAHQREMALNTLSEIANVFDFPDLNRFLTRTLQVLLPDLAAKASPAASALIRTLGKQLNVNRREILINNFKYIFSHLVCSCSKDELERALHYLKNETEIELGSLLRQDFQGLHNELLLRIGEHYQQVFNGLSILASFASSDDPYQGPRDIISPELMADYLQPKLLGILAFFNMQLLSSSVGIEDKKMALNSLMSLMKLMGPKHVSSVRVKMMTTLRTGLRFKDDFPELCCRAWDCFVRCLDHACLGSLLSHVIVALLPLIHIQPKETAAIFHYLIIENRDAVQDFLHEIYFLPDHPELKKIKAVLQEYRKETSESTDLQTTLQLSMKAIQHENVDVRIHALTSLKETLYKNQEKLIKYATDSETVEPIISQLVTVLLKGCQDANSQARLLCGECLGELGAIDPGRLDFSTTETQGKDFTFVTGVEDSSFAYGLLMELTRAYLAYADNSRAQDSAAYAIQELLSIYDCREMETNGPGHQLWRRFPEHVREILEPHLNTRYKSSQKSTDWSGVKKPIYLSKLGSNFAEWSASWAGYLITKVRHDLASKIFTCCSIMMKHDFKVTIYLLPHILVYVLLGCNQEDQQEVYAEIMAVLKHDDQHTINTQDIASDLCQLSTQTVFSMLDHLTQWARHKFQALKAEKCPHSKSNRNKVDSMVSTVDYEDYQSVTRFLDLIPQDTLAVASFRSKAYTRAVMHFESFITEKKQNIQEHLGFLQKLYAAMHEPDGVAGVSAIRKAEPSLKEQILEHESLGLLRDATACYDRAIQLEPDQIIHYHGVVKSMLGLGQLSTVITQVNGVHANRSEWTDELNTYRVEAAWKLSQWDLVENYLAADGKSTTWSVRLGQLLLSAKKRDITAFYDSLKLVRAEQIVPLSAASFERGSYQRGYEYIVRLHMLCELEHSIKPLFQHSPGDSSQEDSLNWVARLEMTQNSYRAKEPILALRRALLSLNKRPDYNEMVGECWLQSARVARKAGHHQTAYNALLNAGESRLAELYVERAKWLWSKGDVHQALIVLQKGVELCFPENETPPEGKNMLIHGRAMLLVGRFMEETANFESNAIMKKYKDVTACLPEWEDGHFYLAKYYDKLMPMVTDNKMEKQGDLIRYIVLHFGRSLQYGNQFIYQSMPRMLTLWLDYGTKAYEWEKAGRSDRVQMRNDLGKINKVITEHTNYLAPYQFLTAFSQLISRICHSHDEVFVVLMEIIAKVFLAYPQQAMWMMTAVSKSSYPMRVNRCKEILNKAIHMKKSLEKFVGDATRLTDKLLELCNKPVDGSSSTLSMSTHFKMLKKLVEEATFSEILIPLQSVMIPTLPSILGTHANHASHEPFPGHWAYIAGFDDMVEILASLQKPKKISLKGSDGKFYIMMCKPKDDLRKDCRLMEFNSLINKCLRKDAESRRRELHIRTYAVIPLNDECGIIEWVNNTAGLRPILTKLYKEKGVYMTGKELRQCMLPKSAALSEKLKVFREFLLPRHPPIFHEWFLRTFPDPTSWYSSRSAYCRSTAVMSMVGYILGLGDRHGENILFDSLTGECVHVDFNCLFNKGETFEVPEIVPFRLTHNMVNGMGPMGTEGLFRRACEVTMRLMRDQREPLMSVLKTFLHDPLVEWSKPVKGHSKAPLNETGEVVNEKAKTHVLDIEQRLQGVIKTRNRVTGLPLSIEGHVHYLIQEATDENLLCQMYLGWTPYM
ATR/ATRIP, sequence (Q8WXE1 whole entry partner): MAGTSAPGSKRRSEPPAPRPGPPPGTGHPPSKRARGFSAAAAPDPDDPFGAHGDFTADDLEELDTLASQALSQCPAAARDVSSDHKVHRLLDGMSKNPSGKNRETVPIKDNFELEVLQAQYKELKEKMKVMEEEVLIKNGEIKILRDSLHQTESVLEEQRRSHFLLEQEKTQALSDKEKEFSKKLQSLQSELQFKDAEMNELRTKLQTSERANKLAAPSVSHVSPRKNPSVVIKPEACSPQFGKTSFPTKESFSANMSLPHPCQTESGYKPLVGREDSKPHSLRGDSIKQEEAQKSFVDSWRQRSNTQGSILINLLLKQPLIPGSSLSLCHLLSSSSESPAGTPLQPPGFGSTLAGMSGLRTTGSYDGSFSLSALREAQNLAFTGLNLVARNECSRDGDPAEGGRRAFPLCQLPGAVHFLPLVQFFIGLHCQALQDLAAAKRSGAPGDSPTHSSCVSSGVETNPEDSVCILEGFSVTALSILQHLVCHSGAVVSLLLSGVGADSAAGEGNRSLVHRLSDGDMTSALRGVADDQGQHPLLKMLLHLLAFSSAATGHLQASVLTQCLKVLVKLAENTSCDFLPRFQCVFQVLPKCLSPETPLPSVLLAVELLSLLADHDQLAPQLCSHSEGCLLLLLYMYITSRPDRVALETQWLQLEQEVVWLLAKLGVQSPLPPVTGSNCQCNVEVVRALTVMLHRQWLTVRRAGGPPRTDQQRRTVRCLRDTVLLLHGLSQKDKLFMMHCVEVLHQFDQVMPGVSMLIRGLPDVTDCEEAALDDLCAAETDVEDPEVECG

SMILES	IC50 (ATR/ATRIP)	IC50 [1]
C[C@@H]1COCCN1c1cc(-c2ccc(S(C)(=N)=O)cc2)c2c(n1)c(-c1cc[nH]n1)nn2C (stereo partly drawn) [Compound 6, Imino(methyl)(4-{1-methyl-5-[(3R)-3-methylmorpholin-4-yl]-3-(1H-pyrazol-3-yl)-1H-pyrazolo[4,3-b]pyridin-7-yl}phenyl)-lambda6-sulfanone]	8.9 nM	100 to 1000 nM
C[C@@H]1COCCN1c1cc(-c2ccc(C(F)(F)F)nc2)c2c(n1)c(-c1cc[nH]n1)nn2C [Compound 65, (3R)-3-Methyl-4-[1-methyl-3-(1H-pyrazol-3-yl)-7-[6-(trifluoro-methyl)pyridin-3-yl]-1H-pyrazolo[4,3-b]pyridin-5-yl]morpholine]	5.8 nM	100 to 1000 nM
C[C@@H]1COCCN1c1ccc2c(n1)c(-c1cc[nH]n1)nn2CCc1ccccc1 [Compound 64, 5-((R)-3-Methyl-morpholin-4-yl)-1-phenethyl-3-(1H-pyrazol-3-yl)-1H-pyrazolo[4,3-b]pyridine]	51 nM	1000 to 10000 nM
C[C@@H]1COCCN1c1cc(-c2ccc(CO)cc2)c2c(n1)c(-c1cc[nH]n1)nn2C [Compound 52, (4-{1-Methyl-5-[(3R)-3-methylmorpholin-4-yl]-3-(1H-pyrazol-3-yl)-1H-pyrazolo[4,3-b]pyridin-7-yl}phenyl)methanol]	1.4 nM	10 to 100 nM
Cc1cnccc1-c1cc(N2CCOC[C@H]2C)nc2c(-c3cc[nH]n3)nn(C)c12 [Compound 23, 1-Methyl-5-((R)-3-methyl-morpholin-4-yl)-7-(3-methyl-pyridin-4-yl)-3-(1H-pyrazol-3-yl)-1H-pyrazolo[4,3-b]pyridine]	1 nM	10 to 100 nM
Cc1ccnc(C)c1-c1cc(N2CCOC[C@H]2C)nc2c(-c3cc[nH]n3)nn(C)c12 [Compound 22, 7-(2,4-Dimethyl-pyridin-3-yl)-1-methyl-5-((R)-3-methyl-morpholin-4-yl)-3-(1H-pyrazol-3-yl)-1H-pyrazolo[4,3-b]pyridine]	3.3 nM	100 to 1000 nM
Cc1nc([S@@+](C)[O-])ccc1-c1cc(N2CCOC[C@H]2C)nc2c(-c3cc[nH]n3)nn(C)c12 [Compound 10, (3R)-4-(7-{6-[(R)-Methanesulfinyl]-2-methylpyridin-3-yl}-1-methyl-3-(1H-pyrazol-3-yl)-1H-pyrazolo[4,3-b]pyridin-5-yl)-3-methylmorpholine]	1.9 nM	10 to 100 nM
Cc1nc([S@+](C)[O-])ccc1-c1cc(N2CCOC[C@H]2C)nc2c(-c3cc[nH]n3)nn(C)c12 [Compound 9, (3R)-4-(7-{6-[(S)-Methanesulfinyl]-2-methylpyridin-3-yl}-1-methyl-3-(1H-pyrazol-3-yl)-1H-pyrazolo[4,3-b]pyridin-5-yl)-3-methylmorpholine]	4.1 nM	10 to 100 nM
C[C@@H]1COCCN1c1cc(C(N)=O)c2c(n1)c(-c1cc[nH]n1)nn2C [Compound 32, 1-Methyl-5-((R)-3-methyl-morpholin-4-yl)-3-(1H-pyrazol-3-yl)-1H-pyrazolo[4,3-b]pyridine-7-carboxylic acid amide]	20 nM	1000 to 10000 nM
CC(C)n1nc(-c2cc[nH]n2)c2nc(N3CCOC[C@H]3C)cc(-c3ccc(S(C)(=O)=O)cc3)c21 [Compound 41, (3R)-4-[7-(4-Methanesulfonylphenyl)-1-(propan-2-yl)-3-(1H-pyrazol-3-yl)-1H-pyrazolo[4,3-b]pyridin-5-yl]-3-methylmorpholine]	1.3 nM	10 to 100 nM
C[C@@H]1COCCN1c1cc(O)c2c(n1)c(-c1ccn[nH]1)nn2C [Compound 45, 1-Methyl-5-((R)-3-methyl-morpholin-4-yl)-3-(2H-pyrazol-3-yl)-1H-pyrazolo[4,3-b]pyridin-7-ol]	1800 nM	–
C[C@@H]1COCCN1c1cc(C2=CC[S+]([O-])CC2)c2c(n1)c(-c1ccn[nH]1)nn2C (stereo partly drawn) [Compound 80, 4-[1-Methyl-5-[(3R)-3-methylmorpholin-4-yl]-3-(1H-pyrazol-5-yl)-1H-pyrazolo[4,3-b]pyridin-7-yl]-3,6-dihydro-2H-1lambda4-thiopyran-1-one]	–	100 to 1000 nM
C[C@@H]1COCCN1c1cc(C2=CCSCC2)c2c(n1)c(-c1ccn[nH]1)nn2C [Compound 79, (3R)-4-[7-(3,6-Dihydro-2H-thiopyran-4-yl)-1-methyl-3-(1H-pyrazol-5-yl)-1H-pyrazolo[4,3-b]pyridin-5-yl]-3-methylmorpholine]	–	10 to 100 nM
C[C@@H]1COCCN1c1ccc2c(n1)c(-c1cc[nH]n1)nn2Cc1ccccn1 [Compound 88, (3R)-3-Methyl-4-[3-(1H-pyrazol-3-yl)-1-[(pyridin-2-yl)methyl]-1H-pyrazolo[4,3-b]pyridin-5-yl]morpholine]	–	1000 to 10000 nM
C[C@@H]1COCCN1c1ccc2c(n1)c(-c1cc[nH]n1)nn2Cc1cccnc1 [Compound 83, (3R)-3-Methyl-4-[3-(1H-pyrazol-3-yl)-1-[(pyridin-3-yl)methyl]-1H-pyrazolo[4,3-b]pyridin-5-yl]morpholine]	–	1000 to 10000 nM
C[C@@H]1COCCN1c1cc([C@H]2CCOC2)c2c(n1)c(-c1ccn[nH]1)nn2C [Compound 72, 1-Methyl-5-((R)-3-methyl-morpholin-4-yl)-3-(2H-pyrazol-3-yl)-7-(R)-tetrahydro-furan-3-yl-1H-pyrazolo[4,3-b]pyridine]	–	10 to 100 nM
Cc1nc(S(C)(=O)=O)ccc1-c1cc(N2CCOC[C@H]2C)nc2c(-c3cc(C(F)(F)F)n[nH]3)nn(C)c12 [Compound 74, (3R)-4-[7-(6-Methanesulfonyl-2-methylpyridin-3-yl)-1-methyl-3-[3-(trifluoromethyl)-1H-pyrazol-5-yl]-1H-pyrazolo[4,3-b]pyridin-5-yl]-3-methyl-morpholine]	17 nM	–
Cc1cc(S(C)(=O)=O)ncc1-c1cc(N2CCOC[C@H]2C)nc2c(-c3cc[nH]n3)n(C)nc12 [Compound 21, 7-(6-Methanesulfonyl-4-methyl-pyridin-3-yl)-2-methyl-5-((R)-3-methyl-morpholin-4-yl)-3-(1H-pyrazol-3-yl)-2H-pyrazolo[4,3-b]pyridine]	510 nM	–
Cc1c(-c2cc(N3CCOC[C@H]3C)nc3c(-c4cc[nH]n4)nn(C)c23)nnn1C [Compound 84, (3R)-4-[7-(1,5-Dimethyl-1H-1,2,3-triazol-4-yl)-1-methyl-3-(1H-pyrazol-3-yl)-1H-pyrazolo[4,3-b]pyridin-5-yl]-3-methylmorpholine]	–	10 to 100 nM
C[C@@H]1COCCN1c1cc(C2CCS(=O)(=O)CC2)c2c(n1)c(-c1ccn[nH]1)nn2C [Compound 82]	–	100 to 1000 nM
